According to PubChem BioAssay (NCI):
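Five compound concentrations were applied to cells in 96-well plates for 48 hours; endpoints were derived by simple linear interpolation of the resulting dose-response curve. GI50: concentration for 50% inhibition of growth. TGI denotes the concentration required for complete inhibition of growth.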

What was measured:
Assay in all cases: NCI tumour cell line growth inhibition, 48 h; in the data active = GI50 below about 0.43 µM; inactive = the rest
[1] = system: NCI-H522 lung
[2] = system: K-562 leukemia
[3] = system: OVCAR-3 ovarian
[4] = system: UACC-257 melanoma
[5] = system: HOP-92 NSCLC
[6] = system: COLO 205 colon
[7] = system: PC-3 prostate
[8] = system: HCT-15 colon
[9] = system: NCI-H226 lung
[10] = system: CAKI-1 renal
[11] = system: OVCAR-8 ovarian
[12] = system: HOP-62 NSCLC
[13] = system: SR leukemia
[14] = system: DU-145 prostate
[15] = system: MOLT-4 leukemia
[16] = system: EKVX NSCLC
[17] = system: HS 578T breast
[18] = system: HT29 colon
[19] = system: TK-10 renal
[20] = system: SW-620 colon
[21] = system: SNB-19 CNS
[22] = system: A549 NSCLC
[23] = system: MALME-3M melanoma
[24] = system: M14 melanoma
[25] = system: SK-MEL-2 melanoma
[26] = system: SK-MEL-5 melanoma
[27] = system: HCT-116 colon
[28] = system: MCF7 breast
[29] = system: MDA-MB-435

CN(C)c1ncnc2c1nnn2C1OC(CO)C(O)C1O (configuration not stated)
active: GI50 [1] 0.272 µM | GI50 [2] 0.0973 µM | GI50 [3] 0.308 µM | GI50 [5] 0.186 µM | GI50 [6] 0.194 µM | GI50 [7] 0.271 µM | GI50 [8] 0.229 µM | GI50 [10] 0.066 µM | GI50 [11] 0.0759 µM | GI50 [12] 0.405 µM | GI50 [13] 0.393 µM | GI50 [14] 0.106 µM | GI50 [15] 0.0635 µM | GI50 [18] 0.128 µM | GI50 [19] 0.25 µM | GI50 [20] 0.293 µM | GI50 [23] 0.332 µM | GI50 [24] 0.0515 µM | GI50 [25] 0.104 µM | GI50 [28] 0.216 µM | GI50 [29] 0.234 µM
inactive: GI50 [4] 0.515 µM | GI50 [9] 4.49 µM | GI50 [16] 2.33 µM | GI50 [17] 0.632 µM | GI50 [21] 1.06 µM | GI50 [22] 3.53 µM | GI50 [26] 0.737 µM | GI50 [27] 0.431 µM
0.769 µM: TGI [6]
> 100 µM: TGI [2] | TGI [4] | TGI [8] | TGI [9] | TGI [11] | TGI [12] | TGI [14] | TGI [15] | TGI [16] | TGI [17] | TGI [19] | TGI [20] | TGI [21] | TGI [22] | TGI [27]
8.77 µM: TGI [10]
> 24.7 µM: TGI [18]
> 23.4 µM: TGI [28]
> 45.5 µM: TGI [7]
1.14 µM: TGI [24]
1.23 µM: TGI [5]
5.7 µM: TGI [26]
1.41 µM: TGI [1]
7.64 µM: TGI [13]
63.5 µM: TGI [23]
2.46 µM: TGI [3]
0.773 µM: TGI [25]
